Consider nine compounds from patent US20220073496A1, “NOVEL QUINOLINE DERIVATIVE INHIBITOR” (Nanjing Transthera Biosciences Co., Ltd., priority 2018, published 2022).

The target of one assay is T1, Axl (h) (Homo sapiens, UniProt P30530).
T1 construct: purchased
T1 sequence (P30530 26-894): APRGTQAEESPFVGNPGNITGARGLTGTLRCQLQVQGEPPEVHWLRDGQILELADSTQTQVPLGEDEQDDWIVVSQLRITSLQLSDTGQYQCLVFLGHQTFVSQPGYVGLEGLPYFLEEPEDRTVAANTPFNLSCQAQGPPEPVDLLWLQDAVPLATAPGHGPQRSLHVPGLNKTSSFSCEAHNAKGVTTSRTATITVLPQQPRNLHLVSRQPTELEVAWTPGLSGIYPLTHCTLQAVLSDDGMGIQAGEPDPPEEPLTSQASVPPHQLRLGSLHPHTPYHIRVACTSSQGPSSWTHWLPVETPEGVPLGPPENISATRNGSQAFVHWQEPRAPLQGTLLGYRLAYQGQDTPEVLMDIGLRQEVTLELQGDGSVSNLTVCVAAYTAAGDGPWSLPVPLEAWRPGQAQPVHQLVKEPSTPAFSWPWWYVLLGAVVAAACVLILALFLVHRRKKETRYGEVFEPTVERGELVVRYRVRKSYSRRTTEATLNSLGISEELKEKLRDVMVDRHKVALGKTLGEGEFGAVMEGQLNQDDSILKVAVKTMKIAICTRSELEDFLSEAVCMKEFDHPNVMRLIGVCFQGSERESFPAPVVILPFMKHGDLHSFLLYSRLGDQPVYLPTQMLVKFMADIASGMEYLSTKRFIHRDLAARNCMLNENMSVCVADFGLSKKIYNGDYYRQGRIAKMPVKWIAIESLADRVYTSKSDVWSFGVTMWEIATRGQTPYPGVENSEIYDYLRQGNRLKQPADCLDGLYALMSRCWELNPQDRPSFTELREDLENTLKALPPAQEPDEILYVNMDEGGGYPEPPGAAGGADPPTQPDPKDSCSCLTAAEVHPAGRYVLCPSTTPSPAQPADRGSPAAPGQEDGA
Kind of assay: Enzymatic activity test, Axl (h). The format is biochemical. The following applies: 10 μM [γ-33P]-ATP, 40 minutes, room temperature. The procedure: Assay 3: Enzymatic Activity Test of the Compounds of the Present Invention
Test substances: the compounds of the present invention, wherein the structures and preparations thereof were as described above.
(1) Preparation of the Compound Stock Solution
The compound was dissolved in 100% DMSO to prepare a stock solution with a maximum concentration of 500 μM.
(2) Preparation of the Compound Working Solution
The compound stock solution was diluted to final concentrations of 500, 150, 50, 15, 5, 1.5, 0.5, 0.15 and 0.05 μM to become the compound working solutions (50×).
(3) Preparation of Different Enzyme Reaction Solutions
The Axl (h) enzyme was dissolved in 8 mM MOPS (pH 7.0), 0.2 mM EDTA, and 250 μM KKSRGDYMTMQIG to prepare an enzyme solution having a final concentration of 1.7 nM. The enzymatic reaction was activated by using 10 mM magnesium acetate and 10 μM [γ-^33P]-ATP to form an Mg/ATP mixed solution.
In a 384-well plate, the compound working solution was added to final concentrations of 10000, 3000, 1000, 300, 100, 30, 10, 3, and 1 nM. Then different enzyme reaction solutions prepared according to the above conditions were added. The incubation was carried out for 40 minutes at room temperature. The test was terminated by the addition of a 0.5% phosphoric acid solution. 10 μL of the reaction solution was taken and dropped to the P30 filter paper. The filter paper was washed 4 times with 0.425% phosphoric acid solution and once with methanol, and then placed on a scintillation counter. The […] IC50 values were calculated using GraphPad 5.0 software.

The target in a further assay is T2, H1299 cell pAxl (Homo sapiens, UniProt P30530).
T2 construct: endogenous in cells; host or cells: H1299
T2 sequence (P30530 26-894): T1 sequence (P30530 26-894)
The assay is described as follows: Inhibitory activity on the cell pAxl (Western Blot). The format is cell-based. To be noted: H1299 cells, compound 1.1, 3.3, 10, 30 nM, hGAS6 200 ng/mL. As for the experimental part:
Assay 5: Test for Inhibitory Activities of the Compounds of the Present Invention on the Cell pAxl
H1299 is a non-small cell lung cancer cell.
Test substances: the compounds of the present invention, wherein the structures thereof were as described above.
Test equipment: protein electrophoresis apparatus (manufactured by Bio Rad), transfer unit (manufactured by Bio Rad), exposure unit (manufactured by Tanon), CO2, cell incubator (manufactured by Thermo).
The H1299 cells were inoculated in a 6-well plate (containing 10% FBS 1640 medium, 5×10^5 cells per well), and adherent cells were cultivated at 37° C. in a 5% CO2 condition for 18 hours. The cells were starved overnight. Different concentrations of compounds were added. The final compound concentrations were 1.1, 3.3, 10, and 30 nM, and the final DMSO content was 1‰. The negative control wells contained the medium containing 1‰ DMSO. After incubating at 37° C. in a 5% CO2 condition for 60 minutes, hGAS6 (R&D, final concentration 200 ng/mL) was added to each well. After further incubating for 60 minutes, the cell total protein was extracted for Western Blot and the […] values were calculated using GraphPad 5.0 software. The inhibitory activity of the compound on the cell pAxl was examined.

In general, IC50 refers to the concentration at which inhibition is half-maximal. Turning to `COc1cc2nccc(Oc3ccc(NC(=O)c4cn(C(C)C)nc(-c5ccc(F)cc5)c4=O)nc3)c2cc1OC` [Compound 41, N-(5-((6,7-dimethoxyquinolin-4-yl)oxy)pyridin-2-yl)-6-(4-fluorophenyl)-2-isopropyl-5-oxo-2,5-dihydropyridazine-4-carboxamide], the IC50 against Axl (h) is 12 nM; against H1299 cell pAxl it was below 10 nM.
In the same order, the values of `COc1cc2nccc(Oc3ccc(NC(=O)c4cn(C(C)C)nc(-c5ccc(F)cc5)c4=O)cn3)c2cc1OC` [Compound 38, N-(6-((6,7-dimethoxyquinolin-4-yl)oxy)pyridin-3-yl)-6-para-fluorophenyl-2-isopropyl-5-oxo-2,5-dihydropyridazine-4-carboxamide] are 3 nM and 3.3 nM.
Consider `COc1cc2nccc(Oc3ccc(NC(=O)c4nn(C(C)C)cc(-c5ccc(F)cc5)c4=O)nc3)c2cc1OC` [Compound 15, N-(5-((6,7-dimethoxyquinolin-4-yl)oxy)pyridin-2-yl)-5-(4-fluorophenyl)-1-isopropyl-4-oxo-1,4-dihydropyridazine-3-carboxamide], for which the half-maximal inhibitory concentration (IC50) against Axl (h) is 11 nM; on H1299 cell pAxl, below 1.1 nM.
On to `COc1cc2nccc(Oc3ncc(NC(=O)c4nn(C(C)C)cc(-c5ccc(F)cc5)c4=O)cn3)c2cc1OC` [Compound 34, N-(2-((6,7-dimethoxyquinolin-4-yl)oxy)pyrimidine-5-yl)-5-para-fluorophenyl-1-isopropyl-4-oxo-1,4-dihydropyridazine-3-carboxamide], for which the half-inhibitory concentration (IC50) at Axl (h) is 5 nM; at H1299 cell pAxl it was below 1.1 nM.
On to `COc1cc2nccc(Oc3cnc(NC(=O)c4cn(C(C)C)cc(-c5ccc(F)cc5)c4=O)nc3)c2cc1OC` [Compound 20, N-(5-((6,7-dimethoxyquinolin-4-y)oxy)pyrimidine-2-yl)-5-(4-fluorophenyl)-1-isopropyl-4-oxo-1,4-dihydropyridin-3-carboxamide], for which the IC50 is 17 nM at Axl (h) and below 1.1 nM against H1299 cell pAxl.
`COc1cc2nccc(Oc3ccc(NC(=O)c4nn(C(C)C)cc(-c5ccc(F)cc5)c4=O)cn3)c2cc1OC` [Compound 29, N-(6-((6,7-dimethoxyquinolin-4-yl)oxy)pyridin-3-yl)-1-isopropyl-4-oxo-5-para-fluorophenyl-1,4-dihydropyridazine-3-carboxamide]: the values for the IC50 on Axl (h) and on H1299 cell pAxl were 5 nM and below 1.1 nM, respectively.
In the case of `COc1cc2nccc(Oc3ccc(NC(=O)c4cn(C(C)C)cc(-c5ccc(F)cc5)c4=O)nc3)c2cc1OC` [Compound 14, N-(5-((6,7-dimethoxyquinolin-4-yl)oxy)pyridin-2-yl)-5-(4-fluorophenyl)-1-isopropyl-4-oxo-1,4-dihydropyridin-3-carboxamide], the half-maximal inhibitory concentration (IC50) on Axl (h) was 8 nM; against H1299 cell pAxl, below 1.1 nM.
Turning to `COc1cc2nccc(Oc3cnc(NC(=O)c4cn(C5CC5)cc(-c5ccc(F)cc5)c4=O)nc3)c2cc1OC` [Compound 32, 1-cyclopropyl-N-(5-((6,7-dimethoxyquinolin-4-yl)oxy)pyrimidine-2-yl)-5-(4-fluorophenyl)-4-oxo-1,4-dihydropyridin-3-carboxamide], the figures for the IC50 against Axl (h) and at H1299 cell pAxl were 5 nM and below 1.1 nM, respectively.
On to `COc1cc2nccc(Oc3ncc(NC(=O)c4cn(C(C)C)nc(-c5ccc(F)cc5)c4=O)cn3)c2cc1OC` [Compound 40, N-(2-((6,7-dimethoxyquinolin-4-yl)oxy)pyrimidine-5-yl)-6-(4-fluorophenyl)-2-isopropyl-5-oxo-2,5-dihydropyridazine-4-carboxamide], for which the IC50 is 4 nM against Axl (h) and 10 nM at H1299 cell pAxl.
